Tests used:
[1] = tested on: cotton aphid (Aphis gossypii); assay: Insecticidal test for cotton aphid, foliar spray on squash; conditions: for % Control at ppm, against cotton aphid: 0.012: 0.012 ppm; for % Control at ppm, against cotton aphid: 0.012 / % Control at ppm, against cotton aphid: 0.049 / % Control at ppm, against cotton aphid: 0.195 / % Control at ppm, against cotton aphid: 0.78 / % Control at ppm, against cotton aphid: 3.12 / % Control at ppm, against cotton aphid: 12.5 / % Control at ppm, against cotton aphid: 50: rundown assay; for % Control at ppm, against cotton aphid: 0.049: 0.049 ppm; for % Control at ppm, against cotton aphid: 0.195: 0.195 ppm; for % Control at ppm, against cotton aphid: 0.78: 0.78 ppm; for % Control at ppm, against cotton aphid: 3.12: 3.12 ppm; for pest or weed control at 50 ppm / pest or weed control at 200 ppm: Aphis gossypii, foliar, 72 h; for pest or weed control at 50 ppm: read-out: CA 50: % control at 50 ppm against cotton aphid in foliar spray tests; for pest or weed control at 200 ppm: read-out: CA 200: % control at 200 ppm against cotton aphid in foliar spray tests; for % Control at ppm, against cotton aphid: 12.5: 12.5 ppm; for % Control at ppm, against cotton aphid: 50: 50 ppm
[2] = tested on: beet armyworm (Spodoptera exigua); conditions: 50 μg/cm2, second-instar larvae, 5 days
[3] = tested on: fruit fly (Drosophila melanogaster); conditions: for FF SYM: % showing intoxicated symptoms at 25 μg/cm2 against fruit fly in dietary tests: 25 μg/cm2, 4 h; for FF 25: % mortality at 25 μg/cm2 against fruit fly in dietary tests: 25 μg/cm2, 48 h
[4] = tested on: beet armyworm (Spodoptera exigua); assay: Insecticidal test for beet armyworm in injection assays; conditions: 1 h, read-out: BAW SYM: % showing intoxicated symptoms at 10 μg/larva against beet armyworm in injection tests
[5] = tested on: sweet potato whitefly (Bemisia tabaci); assay: Insecticidal test for sweet potato whitefly, foliar spray on cotton; conditions: for % Control at ppm, against sweet potato whitefly: 0.4-0.78: 0.4-0.78 ppm; for % Control at ppm, against sweet potato whitefly: 0.4-0.78 / % Control at ppm, against sweet potato whitefly: 2-3.13 / % Control at ppm, against sweet potato whitefly: 10-12.5 / % Control at ppm, against sweet potato whitefly: 50: rundown assay; for % Control at ppm, against sweet potato whitefly: 2-3.13: 2-3.13 ppm; for % Control at ppm, against sweet potato whitefly: 10-12.5: 10-12.5 ppm; for % Control at ppm, against sweet potato whitefly: 50: 50 ppm; for pest or weed control at 200 ppm: Bemisia tabaci, in Gossypium hirsutum, foliar, read-out: SPW 200: % control at 200 ppm against sweet potato whitefly in foliar spray tests
[6] = tested on: corn earworm (Helicoverpa zea); conditions: 50 μg/cm2, second-instar larvae, 5 days
[7] = tested on: yellow fever mosquito (Aedes aegypti) larvae; assay: whole plant or invertebrate; assay type: in vivo; conditions: 72 h, read-out: YFM 26: % control at 26 ppm against yellow fever mosquito in submerge tests
[8] = tested on: green peach aphid (Myzus persicae); assay: Insecticidal test for green peach aphid, foliar spray on cabbage seedlings; conditions: rundown assay, 3 days; for % Control at ppm, against green peach aphid: 0.012: 0.012 ppm; for % Control at ppm, against green peach aphid: 0.049: 0.049 ppm; for % Control at ppm, against green peach aphid: 0.195: 0.195 ppm; for % Control at ppm, against green peach aphid: 0.78: 0.78 ppm; for % Control at ppm, against green peach aphid: 3.12: 3.12 ppm; for % Control at ppm, against green peach aphid: 12.5: 12.5 ppm; for % Control at ppm, against green peach aphid: 50: 50 ppm
[9] = tested on: Colorado potato beetle (Leptinotarsa decemlineata); assay: Insecticidal test for Colorado potato beetle, foliar spray on tomato; assay type: in vivo; conditions: for CPB 50: % control at 50 ppm against Colorado potato beetle in foliar spray tests: 5 days, Corrected % Control; for % Control at ppm, against Colorado potato beetle: 0.78: 0.78 ppm; for % Control at ppm, against Colorado potato beetle: 0.78 / % Control at ppm, against Colorado potato beetle: 3.13 / % Control at ppm, against Colorado potato beetle: 12.5 / % Control at ppm, against Colorado potato beetle: 50: rundown assay; for % Control at ppm, against Colorado potato beetle: 3.13: 3.13 ppm; for % Control at ppm, against Colorado potato beetle: 12.5: 12.5 ppm; for CPB 50: % control at 50 ppm against Colorado potato beetle in foliar spray tests / % Control at ppm, against Colorado potato beetle: 50: 50 ppm
Protocol: Insecticidal Test for Colorado Potato Beetle (Leptinotarsa decemlineata).
Tomato seedlings at the growth stage of three or four expanding leaves were used. […] Treated plants were held in the laboratory for approximately 3 h to allow drying before the upper portion (with two or three leaves) of a plant was cut and placed in a 10×2.5-cm petri dish containing approximately 10 mL of solidified 1% agar at the bottom. Five 2nd or 3rd instar larvae were placed on the treated plant tissue, and the petri dishes were covered and held in an incubator at 25° C. At 5 days following treatment, insecticidal activity was evaluated by counting the number of live larvae in each dish.

| SMILES | % Control at ppm, against cotton aphid: 0.049 [1] | % Control at ppm, against cotton aphid: 0.195 [1] | % Control at ppm, against cotton aphid: 0.78 [1] | % Control at ppm, against cotton aphid: 3.12 [1] | pest or weed control at 50 ppm [1] [%] | pest or weed control at 200 ppm [1] [%] | BAW 50: % mortality at 50 μg/cm2 against beet armyworm in dietary tests [2] | FF SYM: % showing intoxicated symptoms at 25 μg/cm2 against fruit fly in dietary tests [3] | FF 25: % mortality at 25 μg/cm2 against fruit fly in dietary tests [3] | pest or weed control at 0.01 mg [4] [%] | % Control at ppm, against sweet potato whitefly: 0.4-0.78 [5] | % Control at ppm, against sweet potato whitefly: 2-3.13 [5] | % Control at ppm, against sweet potato whitefly: 10-12.5 [5] | % Control at ppm, against sweet potato whitefly: 50 [5] | pest or weed control at 200 ppm [5] [%] | CEW 50: % mortality at 50 μg/cm2 against corn earworm in dietary tests [6] | pest or weed control at 26 ppm [7] [%] | % Control at ppm, against green peach aphid: 0.049 [8] | % Control at ppm, against green peach aphid: 0.195 [8] | CPB 50: % control at 50 ppm against Colorado potato beetle in foliar spray tests [9] | other results |
| --- | --- | --- | --- | --- | --- | --- | --- | --- | --- | --- | --- | --- | --- | --- | --- | --- | --- | --- | --- | --- | --- |
| C[C@H](c1ccc(Cl)nc1)[S@](C)(=O)=NC#N [Compound 28] | A (90-100) | A (90-100) | A (90-100) | A (90-100) | 90 to 100 | 90 to 100 | G (Inactive) | A (90-100) | A (90-100) | 60 to 69 | A (90-100) | A (90-100) | A (90-100) | A (90-100) | 90 to 100 | G (Inactive) | 90 to 100 | F (Less than 50) | B (80-89) |  | % Control at ppm, against cotton aphid: 0.012 [1]: A (90-100); % Control at ppm, against green peach aphid: 0.012 [8]: F (Less than 50); % Control at ppm, against green peach aphid: 0.78 [8]: A (90-100); % Control at ppm, against green peach aphid: 3.12 [8]: A (90-100) |
| O=[N+]([O-])N=S1(=O)CCCC1Cc1ccc(Cl)nc1 (centres unmarked) [Compound 35] |  |  |  |  | 90 to 100 | 90 to 100 | G (Inactive) | D (60-69) | F (Less than 50) | < 50 |  |  |  |  | 90 to 100 | G (Inactive) | 80 to 89 |  |  | B (80-89) |  |
| CC(c1ccc(Cl)nc1)[S@](C)(=O)=NC#N (some centres unmarked) [Compound 29] | A (90-100) | A (90-100) | A (90-100) | A (90-100) | 90 to 100 | 90 to 100 | G (Inactive) | A (90-100) | A (90-100) | 90 to 100 | A (90-100) | A (90-100) | A (90-100) | A (90-100) | 90 to 100 | G (Inactive) | 90 to 100 | D (60-69) | A (90-100) |  | % Control at ppm, against cotton aphid: 0.012 [1]: A (90-100); % Control at ppm, against green peach aphid: 0.012 [8]: F (Less than 50); % Control at ppm, against green peach aphid: 0.78 [8]: A (90-100); % Control at ppm, against green peach aphid: 3.12 [8]: A (90-100) |
| O=[N+]([O-])N=[S@@]1(=O)CCCC1Cc1ccc(Cl)nc1 (some centres unmarked) [Compound 41] | C (70-79) | A (90-100) | A (90-100) | A (90-100) | 90 to 100 | 90 to 100 | G (Inactive) |  | F (Less than 50) |  |  |  |  |  | 90 to 100 | G (Inactive) | 90 to 100 | F (Less than 50) | F (Less than 50) | A (90-100) | % Control at ppm, against cotton aphid: 12.5 [1]: A (90-100); % Control at ppm, against cotton aphid: 50 [1]: A (90-100); % Control at ppm, against Colorado potato beetle: 0.78 [9]: F (Less than 50); % Control at ppm, against Colorado potato beetle: 3.13 [9]: F (Less than 50); % Control at ppm, against Colorado potato beetle: 12.5 [9]: D (60-69); % Control at ppm, against Colorado potato beetle: 50 [9]: A (90-100); % Control at ppm, against green peach aphid: 0.78 [8]: E (50-59); % Control at ppm, against green peach aphid: 3.12 [8]: D (60-69); % Control at ppm, against green peach aphid: 12.5 [8]: A (90-100); % Control at ppm, against green peach aphid: 50 [8]: A (90-100) |
| CS(=O)(Cc1ccc(Cl)nc1)=NC#N (centres unmarked) [Compound 10, [(6-Chloropyridin-3-yl)methyl](methyl)oxido-λ^4-sulfanylidene-cyanamide] |  |  |  |  | 90 to 100 | 90 to 100 | G (Inactive) | A (90-100) | A (90-100) | < 50 | F (Less than 50) | D (60-69) | A (90-100) | A (90-100) | 90 to 100 | G (Inactive) | 90 to 100 |  |  | B (80-89) | % Control at ppm, against Colorado potato beetle: 12.5 [9]: E (50-59); % Control at ppm, against Colorado potato beetle: 50 [9]: B (80-89) |
| CC(c1ccc(Cl)nc1)S(C)(=O)=NC#N (centres unmarked) [Compound 8, [1-(6-chloropyridin-3-yl)ethyl](methyl)oxido-λ^4-sulfanylidenecyanamide] |  |  |  |  | 90 to 100 | 90 to 100 | G (Inactive) | A (90-100) | A (90-100) | 50 to 59 | A (90-100) | A (90-100) | A (90-100) | A (90-100) | 90 to 100 | G (Inactive) | 90 to 100 |  |  | A (90-100) | % Control at ppm, against Colorado potato beetle: 3.13 [9]: D (60-69); % Control at ppm, against Colorado potato beetle: 12.5 [9]: A (90-100); % Control at ppm, against Colorado potato beetle: 50 [9]: A (90-100) |
| N#CN=[S@@]1(=O)CCCC1Cc1ccc(Cl)nc1 (some centres unmarked) [Compound 20] | B (80-89) | A (90-100) | A (90-100) | A (90-100) | 90 to 100 | 90 to 100 | G (Inactive) | F (Less than 50) | F (Less than 50) | 80 to 89 | F (Less than 50) | F (Less than 50) | A (90-100) | A (90-100) | 90 to 100 | G (Inactive) | 90 to 100 | F (Less than 50) | F (Less than 50) | A (90-100) | % Control at ppm, against cotton aphid: 12.5 [1]: A (90-100); % Control at ppm, against cotton aphid: 50 [1]: A (90-100); % Control at ppm, against Colorado potato beetle: 0.78 [9]: F (Less than 50); % Control at ppm, against Colorado potato beetle: 3.13 [9]: F (Less than 50); % Control at ppm, against Colorado potato beetle: 12.5 [9]: A (90-100); % Control at ppm, against Colorado potato beetle: 50 [9]: A (90-100); % Control at ppm, against green peach aphid: 0.78 [8]: F (Less than 50); % Control at ppm, against green peach aphid: 3.12 [8]: F (Less than 50); % Control at ppm, against green peach aphid: 12.5 [8]: A (90-100); % Control at ppm, against green peach aphid: 50 [8]: A (90-100) |
